In test [1] the test system is MDA-MB-231 PARG knockdown (PARG-KD) cells. Put plainly: Cellular PARylation, anti-PAR immunoblot. Format: cell-based, human. Here is the method: Fig. 6 Selective inhibition of PARG by xanthine derivative JA2131. a Clonogenic survival assays of PC3, MDA-MB-231, and MCF-7 cells treated with PARGi. Cells were treated with either DMSO or 10 µM JA2131 for 2 h, irradiated with 3 Gy (MDA-MB-231 and MCF-7), 7 Gy (PC3) IR and grown for ~2 weeks, then colonies were fixed with methanol and stained with crystal violet. The results of three independent experiments are shown. Error bars = the standard error of the mean (SEM). b dose-response of JA2131 in MDA-MB-231 cells with and without IR. Cells were treated with designated concentrations of JA2131 for 2 h and then either left untreated or exposed to 3 Gy IR and allowed to recover for 1 h before lysis. Total protein was immunoblotted with anti-PAR antibody (upper panel), stripped and reprobed with anti-PCNA as a loading control. c MDA-MB-231 cells with stable scrambled shRNA (WT) or stable PARG shRNA, knockdown (KD), were treated with 5 μM JA2131 for 2 h, lysed and then total lysates were immunoblotted for anti-PAR (upper panel) followed by anti-PARG (upper middle panel), anti-PARP1 (lower middle panel) and anti-actin (bottom panel) antibody. […] Stable cells with scramble shRNA (control) and shPARG (PARG-KD) cells were treated with an increasing concentration of JA2131 for growth inhibitory IC50 determination. The data was normalized against 100% survival at the lowest inhibitor concentration. Error bars show the percent coefficient of variation. Equivalent concentrations of DMSO were used as a negative control. e The cytotoxicity of JA2131 along with PDD, Veliparib and Doxorubicin against MRC-5 cells. Error bars show the percent coefficient of variation. f CETSA for in-cell JA2131 target engagement. Normalized anti-PARG western blot intensities of three independent experiments were fitted as above and the estimated aggregation temperature (Tagg) is shown in the tabulated insert. Source Data are provided as a Source Data file.
Using shRNA, next, we generated a stable MDA-MB-231 PARG knockdown (PARG-KD) cell-line (Supplementary Fig. 10). We compared PARGi JA2131-induced PARylation in PARG-KD and control cells. We reasoned that PARG-KD cells would show a reduced response to a selective PARGi as the stable PARG-KD cells would have to adopt a PARG-independent survival mechanism. MDA-MB-231 control cells and PARG-KD cells were treated with JA2131, then total cell lysates were subjected to immunoblotting with anti-PAR antibody, followed by immunodetection for anti-PARG, PARP1 and Actin antibody (Fig. 6c). […] Dose-response curves comparing control and PARG-KD cells further validate the selective action of JA2131 on control cells expressing PARG, but not on the PARG-KD cells (Supplementary Fig. 12).
PC3, MDA-MB-231 cells were maintained in RPMI 1640, MCF-7 cells in Eagle’s Minimum Essential Medium (EMEM), MRC-5 cells in Eagle’s Minimum Essential Medium and Hela and U2OS cells in Dulbecco’s modified Eagle’s high glucose medium (DMEM) supplemented with 10% (vol/vol) fetal bovine serum (FBS) and 1% antibiotic/antimycotic (Lonza) in a humidified incubator with 10% CO2. All cell lines were purchased from ATCC and regularly checked for mycoplasma and cell authentication. SUM 149PT cells were cultured in F-12 Hams (Gibco) supplemented with 5% fetal bovine serum, insulin, and hydrocortisone. […] Cells were fixed with methanol (100%), stained with crystal violet and analyzed using a GelCount instrument (Oxford Optronix Ltd). […]
(A western blot detects proteins with antibodies after separation by electrophoresis.)

The target in another test is T1, PCNA in PC3 cells (Homo sapiens, UniProt P12004).
T1 construct: endogenous in cells; host or cells: PC3
Put plainly: Cellular thermal shift assay (CETSA), control protein. Format: cell-based. The following applies: 10 μM JA2131. The protocol:
CETSA was performed as described by Molina et al.[44]. Briefly, PC3 cells were treated with 10 μM JA2131 or an equivalent volume of DMSO for 2 h, washed three times with PBS and extracted for total cell lysate. Ten percent glycerol was added to the samples before subjecting to heat. […] Then, samples were centrifuged at 14,000 rpm for 20 min at 4 °C. Supernatants were carefully removed and analyzed by western blotting analysis.
Supplementary Fig. 14: Representative CETSA western blots for PARG and PCNA. PC3 cells
treated with 10 µM JA2131 or DMSO were temperature shocked as described in Materials and […]
PCNA antibody. Anti -Histone H3 was used as loading control.
(1 picture or pasted object on this page, not shown here)

T1 sequence (P12004 whole entry): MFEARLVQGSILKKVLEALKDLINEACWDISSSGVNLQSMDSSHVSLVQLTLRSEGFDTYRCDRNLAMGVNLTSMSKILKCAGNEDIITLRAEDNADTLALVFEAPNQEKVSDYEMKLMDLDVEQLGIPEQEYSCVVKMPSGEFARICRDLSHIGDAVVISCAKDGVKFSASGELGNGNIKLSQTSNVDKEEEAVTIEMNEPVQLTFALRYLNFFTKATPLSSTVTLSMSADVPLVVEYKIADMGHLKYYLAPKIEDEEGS

For the compound `Cn1c(=S)c2[nH]c(SCCN3CCOCC3)nc2n(C)c1=O` [JA2131], in test [1] (5 μM JA2131 2 h, Ci-DMSO = 1), the “anti-PAR western blot band, Normalized” value was found to be 8.898. The “anti-PAR western blot band, Intensity inversion” value in test [1] (5 μM JA2131 2 h, ImageJ) was determined as 0.00723. Also, the “anti-PAR western blot band, Neg. substracted” value in test [1] (5 μM JA2131 2 h, ImageJ) was 0.001922. Also, the “anti-PAR western blot band, mean int.” value in test [1] (5 μM JA2131 2 h, ImageJ) turned out to be 138.32. Moreover, the “PAR accumulation after treatment” value in test [1] (5 μM, 2 h) is reported as “did not affect the level of PAR accumulation”. For the same compound, at PCNA in PC3 cells, the “change in thermal stability of PCNA control” value is reported as “no significant change in thermal stability”. For the same compound, the “Band intensities, anti-PCNA” value stood at 100 on PCNA in PC3 cells (Temperature 4 °C); 91.1484 at PCNA in PC3 cells (Temperature 51 °C); 38.4112 at PCNA in PC3 cells (Temperature 62 °C); 12.3183 on PCNA in PC3 cells (Temperature 68 °C); 4.285 on PCNA in PC3 cells (Temperature 72 °C); 3.2332 at PCNA in PC3 cells (Temperature 77 °C). On PCNA in PC3 cells (Temperature 85 °C), the “Band intensities, anti-PCNA” value came to 4.145.

The record behind these values is publication PMC6906431, “Selective small molecule PARG inhibitor causes replication fork stalling and cancer cell death” (Nature Communications, 2019).
